Columns and labels:
Cbl-b = Cbl-b (Homo sapiens (Human), UniProt Q13191); test: Cbl-b LCK Ub TR-FRET assay (Cbl-b Lck HTRF); format: biochemical; conditions: for (fold-selectivity): Cbl-b and C-Cbl selectivity, Lck HTRF; for IC50: read-out: Cbl-b Lck HTRF IC50
Method: (§1) Compounds were 3-fold serially diluted in DMSO in a 384-well polypropylene plate (#P-05525-BC; Labcyte) to generate a source plate with 10 concentrations of each compound, top concentration=2 mM. 80 nL of DMSO or compounds were transferred to each well of a black 384-well ProxiPlate (#6008260; PerkinElmer) using a Labcyte Echo. 1× assay buffer (50 mM HEPES pH7.0, 100 mM NaCl, 0.01% BSA, 0.01% Triton-X100, 1 mM DTT), 2× enzyme solution (16 nM Biotin-Cbl-b or 12 nM Biotin-c-Cbl in 1× assay buffer), 2× kinase mixture (120 nM His-LCK, 1 mM ATP, 10 mM MgCl2 in assay buffer) and 2.33× detection mixture (4.66× solution 1: 163 nM Anti-HA-D2 antibody (#610HADAB; PerkinElmer), 27.96 nM Streptavidin-EU (#AD0062; PerkinElmer), 1.398 mM EDTA in 1× assay buffer+4.66× solution 2: 2.796 μM UBE2D2/Methylated-HA-Ubiquitin thioester adduct (BostonBiochem) in 1× assay buffer) were prepared. 4 μL of 2× enzyme solution was added to each well containing compound, briefly centrifuged to mix, and incubated for 60 min at room temperature. 4 μL of 2× kinase mixture was added, briefly centrifuged to mix, and incubated for 90 min. at room temperature. 6 μL of detection mixture was added to all wells and briefly centrifuged before incubating for 20 min at room temperature. Plates were read for TR-FRET using an Envision at excitation 340 nm, emission at 615 and 665 nm, 4 flashes per well. IC50 was generated using no LCK as the low control and DMSO as the high control.
(§2) Cbl-b Lck HTRF data in Table 3 is measured according to Example 25 herein; C-cbl Lck HTRF data is measured according to Example 25 herein.
(§3) SPR and the LCK biochemical assay are orthogonal assays: SPR is a protein binding assay while the LCK assay is an enzyme activity assay. SPR measures compound binding affinity to CBL-B/C-CBL, whereas LCK assay measures compound inhibition of CBL-B/C-CBL ubiquitin transfer activity.

c-Cbl = c-Cbl (Homo sapiens (Human), UniProt P22681); test: C-cbl LCK Ub TR-FRET assay (C-cbl Lck HTRF); format: biochemical
Chain of c-Cbl (P22681 47-435): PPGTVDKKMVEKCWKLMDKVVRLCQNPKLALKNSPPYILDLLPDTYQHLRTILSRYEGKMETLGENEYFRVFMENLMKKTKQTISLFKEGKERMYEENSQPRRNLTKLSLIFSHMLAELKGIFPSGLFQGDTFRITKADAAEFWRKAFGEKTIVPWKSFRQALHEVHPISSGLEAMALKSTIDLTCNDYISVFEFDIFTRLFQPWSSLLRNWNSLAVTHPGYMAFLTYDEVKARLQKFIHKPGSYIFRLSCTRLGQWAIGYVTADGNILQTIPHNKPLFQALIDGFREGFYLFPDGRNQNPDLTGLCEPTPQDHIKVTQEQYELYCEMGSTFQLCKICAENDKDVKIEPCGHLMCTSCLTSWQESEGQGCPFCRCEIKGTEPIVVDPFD
Method: as §1, §2, §3

Chain of Cbl-b (Q13191 40-426): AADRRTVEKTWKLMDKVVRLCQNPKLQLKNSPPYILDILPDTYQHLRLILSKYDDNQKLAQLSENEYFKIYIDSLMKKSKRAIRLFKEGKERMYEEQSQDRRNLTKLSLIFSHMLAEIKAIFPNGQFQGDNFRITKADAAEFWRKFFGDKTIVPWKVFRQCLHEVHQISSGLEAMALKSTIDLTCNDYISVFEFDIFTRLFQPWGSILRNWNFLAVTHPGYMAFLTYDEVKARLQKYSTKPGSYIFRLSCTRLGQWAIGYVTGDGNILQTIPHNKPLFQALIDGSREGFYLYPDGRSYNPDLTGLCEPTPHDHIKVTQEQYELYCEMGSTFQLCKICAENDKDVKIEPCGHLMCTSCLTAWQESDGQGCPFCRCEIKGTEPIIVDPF

(fold-selectivity) (Cbl-b) | IC50 (Cbl-b) [nM] | IC50 (c-Cbl) [nM] | SMILES
(1.4x) | 12000 | 16000 | Cn1cnnc1[C@@H](F)C(C)(F)c1cccc(NC(=O)c2cc(CN3CC(C)(F)C3)nc(C3CC3)n2)c1 (stereo in doubt) [Compound 45, 2-cyclopropyl-N-(3-((1R,2S)-1,2-difluoro-1-(4-methyl-4H-1,2,4-triazol-3-yl)propan-2-yl)phenyl)-6-((3-fluoro-3-methylazetidin-1-yl)methyl)pyrimidine-4-carboxamide]
(1.9x) | 420 | 800 | Cn1cnnc1[C@@H](F)C(C)(F)c1cccc(NC(=O)c2cc(CN3CC(C)(F)C3)nc(C3CC3)n2)c1 (stereo in doubt) [Compound 46, 2-cyclopropyl-N-(3-((1R,2R)-1,2-difluoro-1-(4-methyl-4H-1,2,4-triazol-3-yl)propan-2-yl)phenyl)-6-((3-fluoro-3-methylazetidin-1-yl)methyl)pyrimidine-4-carboxamide]
(2.2x) | 110 | 250 | C[C@@H](c1cc(C(=O)Nc2cccc(C3(Cc4nncn4C)COC3)c2)nc(C(F)(F)F)c1)N1CC(F)C1 [Compound 1, (S)-4-(1-(3-fluoroazetidin-1-yl)ethyl)-N-(3-(3-((4-methyl-4H-1,2,4-triazol-3-yl)methyl)oxetan-3-yl)phenyl)-6-(trifluoromethyl)picolinamide]
(1.7x) | 220 | 370 | C[C@H](c1cc(C(=O)Nc2cccc(C3(Cc4nncn4C)COC3)c2)nc(C(F)(F)F)c1)N1CC(F)C1 [Compound 2, (R)-4-(1-(3-fluoroazetidin-1-yl)ethyl)-N-(3-(3-((4-methyl-4H-1,2,4-triazol-3-yl)methyl)oxetan-3-yl)phenyl)-6-(trifluoromethyl)picolinamide]
(1.9x) | 25 | 47 | C[C@@H](c1cc(C(=O)Nc2cccc(C3(Cc4nncn4C)COC3)c2)nc(C(F)(F)F)c1)N1CCC2(CC2)C1 [Compound 3, (S)-4-(1-(5-azaspiro[2.4]heptan-5-yl)ethyl)-N-(3-(3-((4-methyl-4H-1,2,4-triazol-3-yl)methyl)oxetan-3-yl)phenyl)-6-(trifluoromethyl)picolinamide]
(1.9x) | 67 | 130 | C[C@H](c1cc(C(=O)Nc2cccc(C3(Cc4nncn4C)COC3)c2)nc(C(F)(F)F)c1)N1CCC2(CC2)C1 [Compound 4, (R)-4-(1-(5-azaspiro[2.4]heptan-5-yl)ethyl)-N-(3-(3-((4-methyl-4H-1,2,4-triazol-3-yl)methyl)oxetan-3-yl)phenyl)-6-(trifluoromethyl)picolinamide]
(1.6x) | 19 | 30 | Cn1cnnc1[C@H](F)C1(c2cccc(NC(=O)c3cc(CN4CCC5(CC5)C4)cc(C4CC4)n3)c2)COC1 [Compound 5, (R)-4-(5-azaspiro[2.4]heptan-5-ylmethyl)-6-cyclopropyl-N-(3-(3-(fluoro(4-methyl-4H-1,2,4-triazol-3-yl)methyl)oxetan-3-yl)phenyl)picolinamide]
(1.7x) | 20 | 33 | Cn1cnnc1[C@@H](F)C1(c2cccc(NC(=O)c3cc(CN4CCC5(CC5)C4)cc(C4CC4)n3)c2)COC1 [Compound 6, (S)-4-(5-azaspiro[2.4]heptan-5-ylmethyl)-6-cyclopropyl-N-(3-(3-(fluoro(4-methyl-4H-1,2,4-triazol-3-yl)methyl)oxetan-3-yl)phenyl)picolinamide]
(1.8x) | 17 | 31 | Cn1cnnc1[C@H](F)C1(c2cccc(NC(=O)c3cc(CN4CC(C)(F)C4)cc(C4CC4)n3)c2)COC1 [Compound 7, (R)-6-cyclopropyl-N-(3-(3-(fluoro(4-methyl-4H-1,2,4-triazol-3-yl)methyl)oxetan-3-yl)phenyl)-4-((3-fluoro-3-methylazetidin-1-yl)methyl)picolinamide]
(2.0x) | 30 | 60 | Cn1cnnc1[C@@H](F)C1(c2cccc(NC(=O)c3cc(CN4CC(C)(F)C4)cc(C4CC4)n3)c2)COC1 [Compound 8, (S)-6-cyclopropyl-N-(3-(3-(fluoro(4-methyl-4H-1,2,4-triazol-3-yl)methyl)oxetan-3-yl)phenyl)-4-((3-fluoro-3-methylazetidin-1-yl)methyl)picolinamide]
(1.6x) | 260 | 410 | Cn1cnnc1CC1(c2cccc(NC(=O)c3cccc(C(F)(F)F)n3)c2)CC(F)(F)C1 [Compound 16, N-(3-(3,3-difluoro-1-((4-methyl-4H-1,2,4-triazol-3-yl)methyl)cyclobutyl)phenyl)-6-(trifluoromethyl)picolinamide]
(1.1x) | 260 | 280 | Cn1cnnc1C[C@]1(c2cccc(NC(=O)c3cccc(C(F)(F)F)n3)c2)C[C@H](F)C1 [Compound 18, N-(3-((1R,3S)-3-fluoro-1-((4-methyl-4H-1,2,4-triazol-3-yl)methyl)cyclobutyl)phenyl)-6-(trifluoromethyl)picolinamide]
(2.1x) | 280 | 570 | Cn1cnnc1C[C@]1(c2cccc(NC(=O)c3cccc(C(F)(F)F)n3)c2)C[C@@H](F)C1 [Compound 19, N-(3-((1S,3R)-3-fluoro-1-((4-methyl-4H-1,2,4-triazol-3-yl)methyl)cyclobutyl)phenyl)-6-(trifluoromethyl)picolinamide]
(1.3x) | 270 | 350 | Cn1cnnc1[C@H](F)C1(c2cccc(NC(=O)c3cc(CN4CC(C)(F)C4)nc(C4CC4)n3)c2)COC1 [Compound 20, (R)-2-cyclopropyl-N-(3-(3-(fluoro(4-methyl-4H-1,2,4-triazol-3-yl)methyl)oxetan-3-yl)phenyl)-6-((3-fluoro-3-methylazetidin-1-yl)methyl)pyrimidine-4-carboxamide]
(1.3x) | 510 | 670 | Cn1cnnc1[C@@H](F)C1(c2cccc(NC(=O)c3cc(CN4CC(C)(F)C4)nc(C4CC4)n3)c2)COC1 [Compound 21, 2-cyclopropyl-6-[(3-fluoro-3-methyl-azetidin-1-yl)methyl]-N-[3-[3-[(S)-fluoro-(4-methyl-1,2,4-triazol-3-yl)methyl]oxetan-3-yl]phenyl]pyrimidine-4-carboxamide]
(0.87x) | 12 | 10 | C[C@@H](c1cc(C(=O)Nc2cccc(C3([C@@H](F)c4nncn4C)COC3)c2)nc(C2CC2)c1)N1CCC2(CC2)C1 [Compound 22, 4-((S)-1-(5-azaspiro[2.4]heptan-5-yl)ethyl)-6-cyclopropyl-N-(3-(3-((R)-fluoro(4-methyl-4H-1,2,4-triazol-3-yl)methyl)oxetan-3-yl)phenyl)picolinamide]
(0.94x) | 50 | 47 | C[C@H](c1cc(C(=O)Nc2cccc(C3([C@@H](F)c4nncn4C)COC3)c2)nc(C2CC2)c1)N1CCC2(CC2)C1 [Compound 23, 4-((R)-1-(5-azaspiro[2.4]heptan-5-yl)ethyl)-6-cyclopropyl-N-(3-(3-((R)-fluoro(4-methyl-4H-1,2,4-triazol-3-yl)methyl)oxetan-3-yl)phenyl)picolinamide]
(0.92x) | 63 | 58 | C[C@@H](c1cc(C(=O)Nc2cccc(C3([C@H](F)c4nncn4C)COC3)c2)nc(C2CC2)c1)N1CCC2(CC2)C1 [Compound 24, 4-((S)-1-(5-azaspiro[2.4]heptan-5-yl)ethyl)-6-cyclopropyl-N-(3-(3-((S)-fluoro(4-methyl-4H-1,2,4-triazol-3-yl)methyl)oxetan-3-yl)phenyl)picolinamide]
(1.0x) | 20 | 20 | C[C@H](c1cc(C(=O)Nc2cccc(C3([C@H](F)c4nncn4C)COC3)c2)nc(C2CC2)c1)N1CCC2(CC2)C1 [Compound 25, 4-((R)-1-(5-azaspiro[2.4]heptan-5-yl)ethyl)-6-cyclopropyl-N-(3-(3-((S)-fluoro(4-methyl-4H-1,2,4-triazol-3-yl)methyl)oxetan-3-yl)phenyl)picolinamide]
(1.5x) | 1500 | 2200 | C[C@H](Cc1nncn1C)c1cccc(NC(=O)c2nc(C(F)(F)F)c(CN3CCC4(CC4)C3)[nH]2)c1 [Compound 26, (R)-5-(5-azaspiro[2.4]heptan-5-ylmethyl)-N-(3-(1-(4-methyl-4H-1,2,4-triazol-3-yl)propan-2-yl)phenyl)-4-(trifluoromethyl)-1H-imidazole-2-carboxamide]

Reference: US20240300927A1, “AMIDES AS CBL-B INHIBITORS” (Genentech, Inc., priority 2021, published 2024)
